Experimental data from patent US20240025849A1 (MAX DELBRÜCK-CENTRUM FÜR MOLEKULARE MEDIZIN IN DER …, priority 2020, published 2024).
Where “and” joins values, the source holds several entries; their conditions need not be identical. Equal values may be shown once. Entries after “also recorded” stand apart in the source; their conditions may differ.

What was measured:
[1] = system: oligodendrocyte cell line OLN-93; assay: Propidium iodide based proliferation and cell death assay in OLN-93 cells; settings: 2.5 μM C1, 48 hours, unstimulated
Procedure: (§1) Cell culture of immortalized cell lines: microglia cell line BV2, and oligodendrocyte cell line OLN-93. The immortalized murine microglia cell line BV2 (Blasi et al., 1990) and the oligodendrocyte cell line OLN-93 (Richter-Landsberg and Heinrich, 1996) were incubated in T75 flasks with plain medium. The cells were split every 2 to 3 days at the dilution 1:10 before they reached confluence. To do so, the cells were washed twice with PBS, followed by up to 5 min of trypsination. The trypsination was stopped using plain medium. The cells were centrifuged at 300 g for 10 min at 4° C., the supernatant was discarded, and the cells were resuspended in new medium and seeded into a new flask.
Propidium iodide based proliferation and cell death assay. To determine the relative proliferation and cell death, the cells were seeded into a […], let adhere for 24 hours and afterwards treated for additional 48 hours. The supernatant was removed, and the cells were washed carefully with 37° C. […] The intensity of the propidium iodide signal of the dead cells was measured using a microplate reader. Afterwards, all cells were killed with a 10 min incubation of 10% DMSO and the propidium iodide signal of all cells was measured. […] The percentage of dead cells was calculated by dividing the dead-cell-signal by the all-cell-signal. Proliferation was calculated as a relative value to the plain medium control.

[2] = system: primary cultured neonatal microglia; assay: IFNγ induced NO release, Griess assay; type: cell-based, mouse; settings: for level of NO, % of its initial concentration (stimulated control): 100 ng/ml IFNγ 48 hours
Procedure: Primary cultured neonatal microglia. For preparation of cultured neonatal microglia, P0-P3 mice were used. 10 brains were extracted, meninges and cerebellum were removed and put on ice with Hank's balanced salt solution (HBSS). The dissected brains were washed 3 times before adding 400 μL trypsin (0.1 mg/L) and DNAse (5 μg/L) in phosphate buffered saline (PBS). After 2 min of incubation with this solution, the reaction was blocked by adding plain medium. After removal of the medium, 1 mg DNAse was added and the cells were mechanically dissociated, with a Pasteur pipette followed by a glass pipette. The cells were centrifuged for 10 min at 129 g at 4° C. The supernatant was discarded. The pellet was resuspended in plain medium and plated (2.5 brains/flask) in Poly-L-Lysine coated flasks. The cells were washed after 2 days with PBS and incubated for another 7 days in plain medium. Afterwards the medium was replaced by plain medium with 33% L929 conditioned medium. After 2 days, cells were harvested by shaking them for 30 min at 150 rpm. The supernatant was centrifuged for 10 min at 129 g at 4° C. The cells were plated into a 96 well plate (100 000 cells/well, 200 μL medium per well). This procedure could be repeated 2 times with a 2 day interval.
Griess assay. Cells were seeded according to the protocols described above, after compounds and stimuli were added, 100 μl of supernatant was transferred into a new 96 well plate and 100 μl freshly mixed Griess reagent were added. Griess reagent was composed of reagent A (100 mg Naphthylethylene in 50 ml aqua dest.) and reagent B (1 g Sulfanilamide, […] H3PO4 (85%) in 44 mL aqua dest.) mixed 1:1. The solution was carefully mixed and the absorbance was determined in a microplate reader at a wavelength of 550 nm.
In order to test whether C1 decreases NO release induced by other stimulation agents besides LPS which is mimicking a bacterial infection, the inventors used IFNγ to mimic a Th1 cell response (Yau et al., 2016) and PolyIC to mimic an anti-viral response (Jiang and Pisetsky, 2006). Given that our aim is to determine the compound's effect on already stimulated microglia (LPS, IFNγ, and PolyIC), each individual experiment is normalized to its stimulated control.

[3] = system: oligodendrocyte cell line OLN-93; assay: AlamarBlue assay in OLN-93 cells; type: cell-based; settings: 2.5 μM C1, 48 hours, unstimulated
Procedure: as §1
AlamarBlue assay. Cells were seeded according to the protocols described above, after compounds and stimuli were added, the cells were washed once with HBSS (37° C.) and 100 μl of a 1:10 AlamarBlue (Thermo Fisher Scientific) dilution in plain medium was added. The conversion of resazurin to resorufin was measured by absorbance (absorbance wavelength of 570 nm and a reference wavelength of 600 nm) after 3 hours.
The inventors evaluated the metabolic activity, proliferation and cell death of primary cultured neonatal microglia, primary cultured neonatal astrocytes and the oligodendrocyte cell line OLN-93 under physiological conditions. […]

[4] = system: bone marrow derived macrophages; assay: Cytokine release (IL1β, IL6, TNFα) ELISA in macrophages; type: cell-based, mouse; settings: 1 μg/mL LPS 48 hours
Procedure: Primary cultured macrophages. Bone marrow macrophages were isolated from C57BL/6 adult mice (P49-56) as previously described (Marim et al., 2010). In summary, mice were killed by cervical dislocation and the femurs were removed by cutting through the tibia near the pelvic bone and below the knee. Any muscle connected to the bone was carefully removed. Ice cold sterile PBS was slowly flushed through the bone and the contents were collected in a sterile 15 mL polypropylene tube on ice. After centrifugation for 10 min at 200 g at 4° C., red blood cells were lysed by adding 3-10 mL ammonium chloride solution. After a 3-5 min recovery period, the suspension was centrifuged for 10 min at 200 g at 4° C. and the supernatant was removed. Cells were plated in a 10 cm dish with plain medium containing 10 ng/mL M-CSF and cultured for 7 days to allow differentiation. 50 000 cells were plated with 200 μL medium per well in a 96 well plate.
Enzyme-linked immunosorbent assay (ELISA). Cells were seeded according to the protocols described above, after compounds and stimuli were added, the supernatant was collected, centrifuged (500 g, 5 minutes) and stored at −20° C. until analysed. The following kits from Bio-Techne (Minneapolis, USA) were used to detect IL1β, IL6 and TNFα: ELISA Mouse IL-1β/IL-1F2 Duo Set, ELISA Mouse IL-6, ELISA Mouse TNFα. ELISA assays were performed according to the manufacturers protocol.

`COc1ccc(NC(=O)C(NC(=O)C2CCCN2C(=O)OCc2ccccc2)c2ccc(OC)cc2)cc1` (centres unmarked) [C1] was tested. Which “OLN-93 cell death rate” value [1] did it give?
The value was “no significant effect”.

And the “proliferation of OLN-93 cells” value [1]?
The value was “did not show an effect; also recorded: Neither C1 nor DMSO changed the proliferation”.

And the “level of NO, % of its initial concentration (stimulated control)” value (“level of NO, % … (stimulated control)” below) ([2]; 25 nM C1)?
Its value is 84%.

What about the “level of NO, % … (stimulated control)” value ([2]; 250 nM C1) of the same compound?
The value was 41%.

What about the “level of NO, % … (stimulated control)” value ([2]; 2.5 μM C1) of the same compound?
Its value is 22%.

And the “NO release upon stimulation with IFNγ” value ([2]; pre-treatment with C1)?
Its value is “dose dependent decrease”.

And the “metabolic activity of OLN-93 cells” value [3]?
Its value is “increased the metabolic activity in oligodendrocytes compared to DMSO (p=0.0431) but not compared to plain medium; also recorded: not affected”.

What about the “LPS induced release of IL1β” value [4] of the same compound?
The value was “not changed; also recorded: Neither the treatment with C1 nor with DMSO showed any significant changes”.

And the “LPS induced release of IL6” value [4]?
Its value is “not changed; also recorded: Neither the treatment with C1 nor with DMSO showed any significant changes”.

And the “reduction of TNFα release” value ([4]; 2.5 μM (highest concentration) C1)?
The value was 9% and 5%.

What about the “release of TNFα, % of positive control” value ([4]; 2.5 μM C1) of the same compound?
The value was 91%.
